In publication PMC6478669, “Engineered Orthogonal Quorum Sensing Systems for Synthetic Gene Regulation in Escherichia coli” (Frontiers in Bioengineering and Biotechnology, 2019):

Key:
Assay in all cases: GFP reporter induction, plate reader
Assay type in all cases: cell-based
[1] = target: T1, LuxR (Aliivibrio fischeri, UniProt P12746); conditions: E. coli BL21 Receiver cells, LB, 37 °C, half-maximal max rate of GFP/OD600; unreliable (little to no response without oxo group)
T1 construct: Receiver plasmid in E. coli BL21, regulator cassette upstream of pLux-GFP; same synthetic system as Canton et al. 2008; acts as dimer
T1 sequence (P12746 1-250): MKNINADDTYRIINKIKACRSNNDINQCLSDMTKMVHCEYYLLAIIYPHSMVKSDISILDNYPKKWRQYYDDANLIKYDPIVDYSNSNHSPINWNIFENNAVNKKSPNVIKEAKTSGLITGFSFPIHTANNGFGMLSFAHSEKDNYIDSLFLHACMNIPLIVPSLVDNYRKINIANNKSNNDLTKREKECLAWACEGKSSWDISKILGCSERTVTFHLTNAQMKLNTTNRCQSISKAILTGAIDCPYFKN

[2] = target: T2, AubR (uncultured bacterium, UniProt K0J3R4); conditions: read-out: Kmapprox
T2 construct: constitutively expressed from Receiver plasmid (pSB1A3) in E. coli BL21 with hybrid pAub promoter-GFP reporter; acts as dimer

[3] = target: T1, LuxR; conditions: E. coli BL21 Receiver cells, LB, 37 °C, half-maximal max rate of GFP/OD600
[4] = target: T3, LasR (Pseudomonas aeruginosa, UniProt P25084); conditions: E. coli BL21 Receiver cells, LB, 37 °C, half-maximal max rate of GFP/OD600
T3 construct: constitutively expressed from Receiver plasmid (pSB1A3) in E. coli BL21 with hybrid pLas promoter-GFP reporter; acts as dimer
T3 sequence (P25084 whole entry): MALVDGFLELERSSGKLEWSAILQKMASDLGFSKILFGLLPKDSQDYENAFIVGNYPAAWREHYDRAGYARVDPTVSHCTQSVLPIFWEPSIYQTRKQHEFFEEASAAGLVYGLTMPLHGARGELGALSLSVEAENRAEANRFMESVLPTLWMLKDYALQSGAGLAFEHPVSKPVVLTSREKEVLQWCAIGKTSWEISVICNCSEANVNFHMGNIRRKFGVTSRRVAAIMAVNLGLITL

T2 sequence (K0J3R4 1-267): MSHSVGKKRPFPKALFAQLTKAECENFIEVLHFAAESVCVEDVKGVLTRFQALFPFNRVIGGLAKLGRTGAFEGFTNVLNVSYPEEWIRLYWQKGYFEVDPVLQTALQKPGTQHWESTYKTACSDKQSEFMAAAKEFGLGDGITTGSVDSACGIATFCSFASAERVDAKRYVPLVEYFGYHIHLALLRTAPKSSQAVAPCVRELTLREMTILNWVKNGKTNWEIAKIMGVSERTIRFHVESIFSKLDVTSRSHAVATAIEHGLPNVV

| Compound | EC50 [2] | Kmapprox [3] | also measured |
| --- | --- | --- | --- |
| CCCC(=O)N[C@H]1CCOC1=O [C4-HSL] |  |  | Kmapprox [1]: ~ 1.0E-6–1.0E-5 M |
| CCCCCCCCCC(=O)CC(=O)N[C@H]1CCOC1=O [3-oxo-C12 HSL] | 100 nM |  |  |
| CCCCCCCCCCCC(=O)N[C@H]1CCOC1=O [C12 HSL] | 5 nM |  |  |
| CCCCCC(=O)CC(=O)N[C@H]1CCOC1=O [3-oxo-C8] |  | ~ between 1.00E-7 and 1.00E-8 M |  |
| CCCCCCCCCCCC(=O)CC(=O)N[C@H]1CCOC1=O [3-oxo-C14 HSL] |  | ~ between 1.00E-8 and 1.00E-7 M | Kmapprox [4]: ~ between 1.00E-9 and 1.00E-8 M |
